The target in assay [1] is T1, mouse CRBN isoform 2 (IKZF1/3, GSPT1/2 as substrates) (Mus musculus, UniProt Q8C7D2, I391V).
T1 construct: expressed in transfected cells; host or cells: CRBN-/- cells (elsewhere: 293FT, CRISPR)
Kind of assay: Substrate degradation in CRBN−/− cells expressing mouse CRBN isoform 2 or mutants. The class given is cell-based. Particulars: mouse CRBN isoform 2 I391V; 10 μM lenalidomide or 1 μM Compound C. The text has this: (§1) To test this hypothesis, specific mutations in the compound-binding domain of mouse CRBN isoform2 were generated, such as V380E and I391V. Wild type mouse CRBN isoform 2 or each mutant was introduced to CRBN−/− cells. […] Thus, in mouse CRBN isoform 2, V380E and I391V mutations are sufficient to trigger the degradation of IKZF1/3 and GSPT1/2, respectively.

Assay [2] concerns the target T2, mouse CRBN isoform 2 (IKZF1/3, GSPT1/2 as substrates) (Mus musculus, UniProt Q8C7D2, V380E).
T2 construct: expressed in transfected cells; host or cells: CRBN-/- cells (elsewhere: 293FT, CRISPR)
The assay is described as above. The class given is cell-based. The following applies: mouse CRBN isoform 2 V380E; 1 μM Compound C.
Text: as §1

The next assay deals with HEK 293FT cells. The assay is described as follows: CellTiter-Glo cell viability assay, HEK 293FT cells with GSPT1 shRNA. The class given is cell-based, human. On the procedure: The effect of depletion of GSPT1 on Compound C-induced anti-proliferation was examined in HEK 293FT cells. Cells were infected with either expression vector alone, or vector containing control shRNA or GSPT1-specific shRNA. The cells were then treated with Compound C at different concentrations. Cell proliferation was measured by the CellTiter-Glo cell viability assay (RLU-Relative Luminescent Unit).

The subject of assay [3] is Acute Myelogenous Leukemia (AML3) cell line. The assay is described as follows: CellTiter-Glo cell viability assay after GSPT1 knockdown, AML3. The class given is cell-based, human. As for the experimental part: The effect of depletion of GSPT1 on the anti-proliferative effect of Compound C was determined in human Acute Myelogenous Leukemia (AML3) cell line. Cells were infected with lentiviral vectors expressing control shRNA, shGSPT1-1 or shGSPT1-3 for 7 days and then treated with DMSO, Compound C in a titration from 0.0001 μM to 1 μM. Two days after treatment, cell proliferation was measured by CellTiter-Glo cell viability assay.

The subject of assay [4] is XBP1 and ATF6 pathways. Kind of assay: RNA level of XBP1 and ATF6 pathway components in 293FT HEK cells. The class given is cell-based, human. Particulars: 1 nM or 10 nM, 24 hours. As for the experimental part: The mechanism of Compound C-activated XBP1 and ATF6 pathways was studied in 293FT HEK cells. Parental cells, CRBN−/− cells, cells expressing control shRNA, or cells expressing GSPT1-specific shRNA were treated with DMSO, 1 nM, or 10 nM Compound C. The RNA level of variant cellular components along the XBP1 and ATF6 pathways was measured and normalized with GAPDH at 24 hours after treatment.

Assay [5] concerns XBP1 and ATF6 pathways. The assay is described as follows: RNA level of XBP1 and ATF6 pathway components in KG1 cells. The following applies: KG1, 20 nM, 2, 4, or 6 hours. The class given is cell-based, human. As for the experimental part: The mechanism of Compound C-activated XBP1 and ATF6 pathways of UPR was studied in KG1 cells. Cells were treated with DMSO or 20 nM Compound C for 2, 4, or 6 hours. The RNA level of variant cellular components along the XBP1 and ATF6 pathways was measured and normalized with GAPDH.

[6] abbreviates: 293FT parental and control shRNA cells.

T1 sequence (Q8C7D2 whole entry I391V, canonical isoform): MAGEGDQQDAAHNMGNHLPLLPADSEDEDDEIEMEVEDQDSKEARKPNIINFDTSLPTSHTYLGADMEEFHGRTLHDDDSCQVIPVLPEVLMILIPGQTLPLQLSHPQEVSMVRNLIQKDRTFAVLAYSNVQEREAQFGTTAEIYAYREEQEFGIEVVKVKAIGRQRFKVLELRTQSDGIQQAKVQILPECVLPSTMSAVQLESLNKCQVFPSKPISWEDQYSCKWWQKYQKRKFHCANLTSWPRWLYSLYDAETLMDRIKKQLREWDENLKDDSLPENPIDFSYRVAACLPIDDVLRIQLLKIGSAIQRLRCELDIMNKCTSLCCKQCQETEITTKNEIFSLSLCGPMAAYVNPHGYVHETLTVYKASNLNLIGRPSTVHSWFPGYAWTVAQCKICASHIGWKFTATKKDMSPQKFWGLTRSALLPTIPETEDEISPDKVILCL
T2 sequence (Q8C7D2 whole entry V380E, canonical isoform): as the sequence (Q8C7D2 whole entry I391V, canonical isoform) above, with V380E, V391I counted along it

In the case of `Cc1ccc(NC(=O)NCc2ccc3c(c2)CN(C2CCC(=O)NC2=O)C3=O)cc1Cl` (stereo not drawn) [Compound C, 1-(3-chloro-4-methylphenyl)-3-((2-(2,6-dioxopiperidin-3-yl)-1-oxoisoindolin-5-yl)methyl)urea], the “Degradation of IKZF1/3” value in assay [1] was “restores both lenalidomide- and Compound C-induced degradation of IKZF1/3”. Further, the “Degradation of GSPT1/2” value in assay [2] is given as “restores Compound C-induced degradation of GSPT1/2”. The Cell proliferation entry in the assay on HEK 293FT cells (CRBN+/+ parental cells, expression vector alone, or control shRNA) is given as “show sensitivity to Compound C-induced anti-proliferation”; in the assay with HEK 293FT cells (CRBN−/− cells), “cannot inhibit cell proliferation”; in the assay with HEK 293FT cells (GSPT1-specific shRNA knockdown) it was “growth inhibition starting at even lower concentration of compound treatment”. In addition, the Anti-proliferative effect result in assay [3] (AML3 (FIG. 12A)) was “exhibited anti-proliferative effect”; in assay [3] (AML3 expressing shGSPT1-1 or shGSPT1-3 vs parental or control shRNA, 0.0001 μM to 1 μM, two days) it was “increased anti-proliferative effect”. Besides, the “RNA level of ATF6 pathway components (XBP1, EDEM1, EDEM2, HYOU1, HSPA5)” value in the assay with XBP1 and ATF6 pathways [4] (setting [6]) is “induces expression”. Further, the “RNA level of XBP1 pathway components (SEC24D, DNAJB9, DNAJC6, XBP1, EDEM1, EDEM2, HYOU1)” value in the assay on XBP1 and ATF6 pathways [4] (setting [6]) is “induces expression”. Further, in the assay on XBP1 and ATF6 pathways [4] (cells with GSPT1 knockdown), the “RNA level of XBP1 and ATF6 pathway components” value is “This induction effect increases”. Moreover, in the assay on XBP1 and ATF6 pathways [5], the “RNA level of ATF6 pathway components (XBP1)” value is listed as “induces expression”. The “RNA level of XBP1 pathway components (SEC24D, DNAJB9, EDEM1, XBP1)” value in the assay with XBP1 and ATF6 pathways [5] is reported as “induces expression”.

For the origin of these results see patent publication US20180267043A1, “USE OF BIOMARKERS FOR PREDICTING CLINICAL SENSITIVITY TO CANCER TREATMENT” (CELGENE CORPORATION, priority 2014, published 2018).
